Experimental data published in patent publication US20160038519A1, “ADMINISTRATION OF KARENITECIN FOR THE TREATMENT OF ADVANCED OVARIAN CANCER, INCLUDING CHEMOTHERAPY-RESISTANT AND/OR THE MUCINOUS ADENOCARCINOMA SUB-TYPES” (BioNumerik Pharmaceuticals, Inc., priority 2014, published 2016).
Where two headings read alike, the source gives them in different places.

Test system: stage III/IV advanced epithelial ovarian cancer resistant or refractory to platinum- and taxane-based regimens
Conditions: for CA-125 marker level, low: after reduction; for CA-125 marker level, high: before reduction
Experimental: Such Phase III clinical trial is sometimes referred to herein as the “Karenitecin Phase III Trial”.
The Primary Endpoint of the disclosed Karenitecin Phase III Trial was Progression Free Survival (“PFS”); which was defined as the time period from the date of randomization to the date of first radiographically-documented Progressive Disease (“PD”) or date of death due to any cause, taking the event date that occurs first. The date of PD was determined by radiographical objective disease (RECIST) measurement. The Secondary Endpoints of the disclosed Karenitecin Phase III Trial included: (i) Overall Survival (hereinafter “OS”), defined as the time from the date of randomization to the date of death due to any cause; (ii) Incidence of anemia, defined as the proportion of subjects who experience ≧grade 3 anemia based on National Cancer Institute Common Terminology Criteria for Adverse Events (NCI-CTCAE) criteria at any time post-baseline after receiving study treatment; (iii) Incidence of neutropenia (including febrile neutropenia), defined as the proportion of subjects who experience ≧grade 3 neutropenia based on NCI-CTCAE criteria at any time post-baseline after receiving study treatment; and (iv) Incidence of thrombocytopenia, defined as the proportion of subjects who experience ≧grade 3 thrombocytopenia based on NCI-CTCAE criteria at any time post-baseline after receiving study treatment.
Approximately 80 study centers participated in this clinical study. The primary endpoint was Progression Free Survival (PFS); defined as the time period from the date of randomization to the date of first radiographically documented progressive disease or disease progression (“PD”) or date of death due to any cause, taking the event date that occurs first.
The primary endpoint was Progression Free Survival (PFS); defined as the time period from the date of randomization to the date of first radiographically documented progressive disease (PD) or date of death due to any cause, taking the event date that occurs first. The date of PD was determined by radiographically objective disease (RECIST) measurement.
• Overall Survival (OS), defined as the time from the date of randomization to the date of death due to any cause. • Incidence of anemia, defined as the proportion of subjects who experience ≧grade 3 anemia based on National Cancer Institute Common Terminology Criteria for Adverse Events (NCI-CTCAE) criteria at any time post-baseline after receiving study treatment. • Incidence of neutropenia (including febrile neutropenia), defined as the proportion of subjects who experience ≧grade 3 neutropenia based on NCI-CTCAE criteria at any time post-baseline after receiving study treatment. • Incidence of thrombocytopenia, defined as the proportion of subjects who experience ≧grade 3 thrombocytopenia based on NCI-CTCAE criteria at any time post-baseline after receiving study treatment.
During this period, subjects received either Karenitecin (1.0 mg/m^2/day administered as a 60-minute intravenous infusion) or Topotecan (1.5 mg/m^2/day administered as a 30-minute intravenous infusion) daily for 5 consecutive days, every 21 days (one treatment cycle=21 days).

[1] = Adenocarcinoma (grade ≧2) not otherwise specified, P-value=0.3700
[2] = ECOG Performance Status 0, P-value=0.0249
[3] = ECOG Performance Status 2, P-value=0.7481
[4] = FIGO Stage IIIB, P-value=0.6225
[5] = FIGO Stage IV, first 254 PFS events, P-value=0.0260
[6] = Histological Stage: G1-well differentiated, P-value=0.8561
[7] = Histological Stage: G2-moderately differentiated, P-value=0.2982
[8] = Histopathology class: serous adenocarcinoma, P-value=0.2829
[9] = Mucinous adenocarcinoma subtype
[10] = Ovary as primary site of disease, P-value=0.2606
[11] = overall trial population, P-value=0.261

SMILES: CC[C@@]1(O)C(=O)OCc2c1cc1n(c2=O)Cc2c-1nc1ccccc1c2CC[Si](C)(C)C [Karenitecin, (4S)-4-ethyl-4-hydroxy-11-[2-(trimethylsilyl)ethyl]-1H-pyrano[3′:4′:6,7]indolizino[1,2-b]quinoline-3,14(4H,12H)-dione]
- Overall survival hazard ratio (Adenocarcinoma (grade ≧2) not otherwise specified, P-value 0.7893): 0.898
- Median PFS advantage in favor of Karenitecin [1]: 2.7 month
- PFS Hazard Ratio [1]: 0.684
- PFS Hazard Ratio (Best response SD after 6 cycles in a first-line setting, P-value=0.9908): 0.992
- Median PFS advantage in favor of Karenitecin (Best response stable disease (SD) after 6 cycles in a first-line setting, P-value=0.9908): 3 month
- Median PFS advantage in favor of Karenitecin [2]: 3.9 month
- PFS Hazard Ratio [2]: 0.662
- Median PFS advantage in favor of Karenitecin [3]: 1.5 month
- PFS Hazard Ratio [3]: 0.896
- Median PFS advantage in favor of Karenitecin [4]: 4.2 month
- PFS Hazard Ratio [4]: 0.722
- Overall survival hazard ratio (FIGO Stage IV, P-value 0.4516): 0.892
- Median PFS advantage in favor of Karenitecin (FIGO Stage IV, P-value=0.0556): 2.7 month
- PFS Hazard Ratio (FIGO Stage IV, P-value=0.0556): 0.741
- Median PFS advantage in favor of Karenitecin [5]: 2.8 month
- PFS Hazard Ratio [5]: 0.669
- Overall survival hazard ratio (Histological Stage: G1-well differentiated, P-value 0.9612): 0.9674
- Median PFS advantage in favor of Karenitecin [6]: 1.7 week
- PFS Hazard Ratio [6]: 0.904
- Median PFS advantage in favor of Karenitecin [7]: 2.5 month
- PFS Hazard Ratio [7]: 0.835
- Overall survival hazard ratio (Histopathology Class: Undifferentiated carcinoma, P-value 0.6426): 0.701
- Median PFS advantage in favor of Karenitecin (as compared with Topotecan) (Histopathology class: Mucinous adenocarcinoma): 2 month
- Median PFS advantage in favor of Karenitecin [8]: 1.6 month
- PFS Hazard Ratio [8]: 0.873
- Median PFS [9]: approximately 17.8 weeks
- Overall survival (OS), third quartile [9]: 35 months
- Overall survival hazard ratio (Karenitecin vs Topotecan) (Mucinous adenocarcinoma subtype, P-value 0.7321): 0.841
- Median PFS advantage in favor of Karenitecin [10]: 6.5 week
- PFS Hazard Ratio [10]: 0.885
- CA-125 marker level, low (another patient): 24 U/ML
- CA-125 marker level, high (another patient): 237 U/ML
- Reduction of grade 4 neutropenia in comparison to the Topotecan arm (female, human, in vivo): 38.2%
- Reduction of number of grade 3 or 4 anemia events in comparison to the Topotecan arm (female, human, in vivo): 27.3%
- Reduction of number of grade 3 or 4 thrombocytopenia events in comparison to the Topotecan arm (female, human, in vivo): 37.4%
- Safety concerns noted by the independent DSMB (in vivo): no safety concerns
- CA-125 marker level, high (one patient): 2072 U/ML
- Median PFS (overall trial population, IRC-determined): approximately 24.3 weeks
- Median PFS advantage in favor of Karenitecin (as compared with Topotecan) [11]: greater than 6 week
- PFS Hazard Ratio (Karenitecin vs Topotecan) [11]: 0.885
- Median PFS (refractory or resistant and/or mucinous subpopulation): approximately 26.9 weeks
- PFS Hazard Ratio (Karenitecin vs Topotecan) (refractory or resistant and/or mucinous subpopulation, first 254 subjects, P-value=0.0849): 0.770
- Median PFS in favor of Karenitecin (as compared with Topotecan) (refractory or resistant to platinum/taxane and/or mucinous sub-type subpopulation, first 254 subjects, P-value=0.0849): approximately 8.2 weeks
- PFS Hazard Ratio (resistant subject sub-population, P-value=0.144): 0.822
- CA-125 marker level, low (same patient): 167 U/ML
